Target: T1, TYK2 (Homo sapiens, UniProt P29597)
T1 construct: purchased Thermo Fisher Scientific (Life Technologies) SelectScreen
Experiment: SelectScreen Z'LYTE
Format: biochemical
Procedure, shortened: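 Percent values come from Thermo SelectScreen profiling of NU5455, combining activity and binding assays. CSF1R was run in Z'LYTE format at Km app ATP, and CAMK1 in Adapta format with ATP listed at 10.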

T1 sequence (P29597 whole entry): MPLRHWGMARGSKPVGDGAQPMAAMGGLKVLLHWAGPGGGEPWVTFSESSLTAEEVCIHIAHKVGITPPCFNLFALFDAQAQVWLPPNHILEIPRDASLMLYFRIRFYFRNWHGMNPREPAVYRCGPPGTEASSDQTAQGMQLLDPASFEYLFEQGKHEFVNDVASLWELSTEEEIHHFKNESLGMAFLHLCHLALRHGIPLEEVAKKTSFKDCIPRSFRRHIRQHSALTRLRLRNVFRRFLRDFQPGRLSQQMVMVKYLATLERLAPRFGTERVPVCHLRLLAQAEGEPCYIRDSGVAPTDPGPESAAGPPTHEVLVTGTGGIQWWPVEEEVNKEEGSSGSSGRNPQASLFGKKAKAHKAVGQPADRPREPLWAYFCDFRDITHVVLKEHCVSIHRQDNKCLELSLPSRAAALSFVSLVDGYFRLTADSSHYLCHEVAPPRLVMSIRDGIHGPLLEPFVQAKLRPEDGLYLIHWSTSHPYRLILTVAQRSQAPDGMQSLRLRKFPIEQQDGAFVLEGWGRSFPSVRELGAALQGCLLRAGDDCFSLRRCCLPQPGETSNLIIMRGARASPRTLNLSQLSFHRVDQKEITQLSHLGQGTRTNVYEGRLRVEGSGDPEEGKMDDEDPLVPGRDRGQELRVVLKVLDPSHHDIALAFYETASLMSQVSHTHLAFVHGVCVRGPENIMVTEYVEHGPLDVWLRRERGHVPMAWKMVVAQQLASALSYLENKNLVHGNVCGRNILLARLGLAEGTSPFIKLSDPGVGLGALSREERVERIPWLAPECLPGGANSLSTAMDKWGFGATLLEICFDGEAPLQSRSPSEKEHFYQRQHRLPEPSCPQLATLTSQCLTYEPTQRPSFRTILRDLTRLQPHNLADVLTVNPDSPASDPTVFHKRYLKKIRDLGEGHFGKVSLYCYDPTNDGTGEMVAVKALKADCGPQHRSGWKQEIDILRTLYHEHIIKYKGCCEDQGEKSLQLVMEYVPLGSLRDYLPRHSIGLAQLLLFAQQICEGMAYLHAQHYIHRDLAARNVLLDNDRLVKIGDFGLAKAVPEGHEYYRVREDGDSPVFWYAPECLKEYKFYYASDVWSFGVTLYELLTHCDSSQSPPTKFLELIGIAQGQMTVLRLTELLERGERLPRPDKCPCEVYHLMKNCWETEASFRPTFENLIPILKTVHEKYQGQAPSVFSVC

Question: How did the inhibition at 1 µM turn out when `CN(C(=O)CN1CCOCC1)c1ccc2sc3c(-c4cccc5c(=O)cc(N6CC7CCC(C6)O7)oc45)cccc3c2c1` [NU5455] was run?
Answer: The inhibition at 1 µM was 4.2%.

— article PMC6934184, “Selective DNA-PKcs inhibition extends the therapeutic index of localized radiotherapy and chemotherapy” (The Journal of Clinical Investigation, 2019)
